Values joined by “and” are separate entries in the source; they are usually repeats but may differ in a detail not shown here. Equal entries are not always repeated. Values belong to the molecule of their own block, whether it stands above or below them. Positions of bridges follow the written chain, without caps; N, C: chain ends. Non-standard residues stand in square brackets, D forms with d. hArg = N=C(N)NCCCC[C@H](N)C(=O)O; S5 = C=CCCC[C@](C)(N)C(=O)O
How the values were obtained:
[1] = biological target: PTH receptor type 2 (UniProt P49190 25-550, limits assumed); experiment: cell-based or functional assay
Sequence of PTH receptor type 2 (P49190 25-550 limits assumed): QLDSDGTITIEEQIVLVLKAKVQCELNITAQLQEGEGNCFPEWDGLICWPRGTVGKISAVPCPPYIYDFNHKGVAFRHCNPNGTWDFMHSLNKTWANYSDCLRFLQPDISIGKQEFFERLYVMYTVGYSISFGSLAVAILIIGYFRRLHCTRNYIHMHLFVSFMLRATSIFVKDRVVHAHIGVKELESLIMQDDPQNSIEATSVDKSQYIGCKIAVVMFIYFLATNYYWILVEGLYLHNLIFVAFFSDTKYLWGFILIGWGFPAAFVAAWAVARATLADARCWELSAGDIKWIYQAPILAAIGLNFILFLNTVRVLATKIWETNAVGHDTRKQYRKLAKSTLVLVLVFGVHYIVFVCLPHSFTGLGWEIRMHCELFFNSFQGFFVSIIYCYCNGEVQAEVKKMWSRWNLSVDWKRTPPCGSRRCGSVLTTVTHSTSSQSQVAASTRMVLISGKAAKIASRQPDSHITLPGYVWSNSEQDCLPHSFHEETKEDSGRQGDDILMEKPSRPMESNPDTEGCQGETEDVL

[2] = tested on: PTH (1-34) induced hypercalcemia; experiment: TPTx rat model of PTH (1-34) induced hypercalcemia; format: in vivo; conditions: for Ionized calcium, Avg. / Total calcium, Avg. / Ionized calcium, individual animals / Total calcium, individual animals: Group 2 Vehicle/PTH; for Ionized calcium, Avg. / Total calcium, Avg.: TPTx rats, PTH 1.25 μg/kg/h IV infusion
Experimental: PTH Antagonist in a TPTx Rat Model of PTH (1-34) Induced Hypercalcemia
Experiments were conducted assess the effect of a PTH antagonist SP#63 in a thyroparathyroidectomized (TPTx) rat model of PTH (1-34) induced hypercalcemia. Thyroid hormone was given as supportive therapy prior to start of PTH infusion.
SP#63 or the vehicle for SP#63 was administered as an intravenous (IV) bolus in PTH infused thyroparathyroidectomized (TPTx) Sprague-Dawley rats. SP#63 was administered at 0.925 mg/kg and 1.850 mg/kg, 1 to 3 min before the initiation of the IV infusion. PTH (administered at 1.25 μg/kg/h) or the vehicle for PTH were infused via a femoral catheter over a period of 6 hours at a rate of 1 mL/kg/h. Total and ionized calcium were measured from blood samples collected at 0, 2, 4 and 6 hours during the IV infusion.

[3] = biological target: T1, human PTH1 receptor (human, UniProt Q03431 27-593); experiment: cell-based or functional assay
T1 sequence (looked up): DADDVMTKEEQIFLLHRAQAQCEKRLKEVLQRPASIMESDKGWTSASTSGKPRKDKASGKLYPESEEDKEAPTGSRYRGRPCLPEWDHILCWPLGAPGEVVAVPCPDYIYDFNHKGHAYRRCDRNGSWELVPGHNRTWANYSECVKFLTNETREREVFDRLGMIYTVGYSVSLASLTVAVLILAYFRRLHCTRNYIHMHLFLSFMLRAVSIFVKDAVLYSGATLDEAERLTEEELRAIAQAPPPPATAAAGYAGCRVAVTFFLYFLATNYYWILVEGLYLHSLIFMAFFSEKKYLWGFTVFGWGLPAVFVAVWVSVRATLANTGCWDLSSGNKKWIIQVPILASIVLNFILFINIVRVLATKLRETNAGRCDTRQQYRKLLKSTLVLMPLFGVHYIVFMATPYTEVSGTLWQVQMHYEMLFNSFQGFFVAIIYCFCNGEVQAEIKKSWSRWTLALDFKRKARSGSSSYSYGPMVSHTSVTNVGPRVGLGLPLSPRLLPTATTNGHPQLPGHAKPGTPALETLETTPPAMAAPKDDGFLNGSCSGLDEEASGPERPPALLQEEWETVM

calcium flux, EC80 [1]: 4.1 nM
Molecule: TIP-39 (from UniProt Q96A98 62-100) (ligand)

IC50, SaOS-2 cAMP with PTH[1-84] or PTHrP[1-34] as ligand [3]: < 10 nM
Molecule: H-LLHQRAKWIQD[S5]RRR[S5]WLRKKLQDVHNF-NH2 (staple 12-16) [SP# 247]

IC50, SaOS-2 cAMP with PTH[1-84] or PTHrP[1-34] as ligand [3]: < 10 nM
Molecule: H-LLHQRA[S5]WIQ[S5]LRRR[S5]WLR[S5]KLQDVHNF-NH2 (staple 7-11, 16-20) [SP# 246]

IC50, SaOS-2 cAMP with PTH[1-84] or PTHrP[1-34] as ligand [3]: < 10 nM
Molecule: H-LLHQRA[S5]WIQ[S5]LRRREW[S5]RKK[S5]QDVHNF-NH2 (staple 7-11, 18-22) [SP# 245]

IC50, SaOS-2 cAMP with PTH[1-84] or PTHrP[1-34] as ligand [3]: < 10 nM
Molecule: H-LL[S5]QRA[S5]WIQDLRRRFW[S5]HHL[S5]AEIHTA-NH2 (staple 18-22, 3-7) [SP# 228]

IC50, SaOS-2 cAMP with PTH[1-84] or PTHrP[1-34] as ligand [3]: < 10 nM
Molecule: H-LL[S5]QRA[S5]WIQD[S5]RRR[S5]WLHHLIAEIHTA-NH2 (staple 12-16, 3-7) [SP# 232]

Second part, the molecule before the results:

Molecule: PTH (1-34)
Ionized calcium, Avg. ([2]; 2 h): 4.13 mg/dL
Total calcium, Avg. ([2]; 2 h): 8.28 mg/dL
Ionized calcium, Avg. ([2]; 4 h): 4.62 mg/dL
Total calcium, Avg. ([2]; 4 h): 9.14 mg/dL
Ionized calcium, Avg. ([2]; 6 h): 4.99 mg/dL
Total calcium, Avg. ([2]; 6 h): 9.92 mg/dL
Ionized calcium, Avg. ([2]; time 0): 3.36 mg/dL
Total calcium, Avg. ([2]; time 0): 7.22 mg/dL
Ionized calcium, individual animals ([2]; animals 2001-2005, 2 h): 4.08 mg/dL and 3.27 mg/dL and 4.85 mg/dL and 4.68 mg/dL and 3.75 mg/dL
Total calcium, individual animals ([2]; animals 2001-2005, 2 h): 8.2 mg/dL and 6.6 mg/dL and 9.8 mg/dL and 9.3 mg/dL and 7.5 mg/dL
Ionized calcium, individual animals ([2]; animals 2001-2005, 4 h): 4.58 mg/dL and 3.88 mg/dL and 5.29 mg/dL and 5.02 mg/dL and 4.34 mg/dL
Total calcium, individual animals ([2]; animals 2001-2005, 4 h): 9.1 mg/dL and 7.6 mg/dL and 10.5 mg/dL and 9.8 mg/dL and 8.7 mg/dL
Ionized calcium, individual animals ([2]; animals 2001-2005, 6 h): 5.06 mg/dL and 4.15 mg/dL and 5.71 mg/dL and 5.23 mg/dL and 4.79 mg/dL
Total calcium, individual animals ([2]; animals 2001-2005, 6 h): 10.1 mg/dL (2×) and 8.3 mg/dL and 11.4 mg/dL and 9.7 mg/dL
Ionized calcium, individual animals ([2]; animals 2001-2005, time 0): 3.21 mg/dL and 3.07 mg/dL and 4.01 mg/dL and 3.16 mg/dL
Total calcium, individual animals ([2]; animals 2001-2005, time 0): 6.7 mg/dL and 6.4 mg/dL and 8.4 mg/dL and 8.3 mg/dL and 6.3 mg/dL
ionized calcium at 6 h ([2]; PTH infusion 1.25 μg/kg/h with vehicle for SP#63, 3.36 mg/dL at 0 h): 4.99 mg/dL
total calcium at 6 h ([2]; PTH infusion 1.25 μg/kg/h with vehicle for SP#63, 7.22 mg/dL at 0 h): 9.92 mg/dL

Molecule: BIM-44002 (peptide)
calcium flux IC50 [1]: > 10000 nM

Molecule: H-LLH[S5]RAK[S5]IQDLRRRFW[S5]HHL[S5]AEIHTA-NH2 (staple 18-22, 4-8) [SP# 226]
IC50, SaOS-2 cAMP with PTH[1-84] or PTHrP[1-34] as ligand [3]: < 10 nM

Molecule: H-LLHQ[hArg]AK[S5]IQD[S5]RRR[S5]WLH[S5]LIAEIHTAEY-NH2 (staple 8-12, 16-20) [SP# 67]
calcium flux IC50 [1]: < 10000 nM

Reference: patent publication US20170037086A1, “PEPTIDOMIMETIC MACROCYCLES WITH PTH ACTIVITY” (AILERON THERAPEUTICS, INC., priority 2014, published 2017)
